Measured values taken from patent US5919793A, “Heterocyclic derivatives” (Zeneca Limited, priority 1993, dated 1999).

Tests used:
[1] = test system: squalene synthase (rat liver microsomal protein); test: Inhibition of Squalene synthase (formation of squalene from tritiated farnesyl pyrophosphate); format: biochemical; conditions: at 2.5 μM
Description: (a) Inhibition of Squalene synthase
In this test, the ability of a compound to prevent the formation of squalene from a radioactive substrate (tritiated farnesyl pyrophosphate) is assessed.
The test compound is incubated at a concentration of 25 micromolar in 200 μl of a buffered solution containing potassium phosphate (50 mM), MgCl2 (4.95 mM), KF (9.9 mM), NADPH (0.9 mM) and rat liver microsomal protein (20 μg). Rat liver microsomes are prepared by the method described in published European Patent Application No. 324,421 and stored in liquid nitrogen prior to assay. Assay vials are kept at 37° C. throughout the incubation.
The reaction is started with the addition of the substrate (1-[^3 H]-farnesyl pyrophosphate), final concentration 20 μM, and stopped after 15 minutes reaction time with the addition of 50 μl of 4% KOH. The reaction products are separated from unreacted substrate after application to a C-18 octadecyl 1 ccBond column (Analytichem Int product No. 617101). An aqueous fraction is eluted with 250 μl of 0.1M KOH. Squalene is then eluted with 1.0 ml 10% ethylacetate in hexane and radioactivity determined. The difference in radioactivity in the presence and absence of the test compound is used to determine the level of inhibition. […] The IC50 can then be determined from a plot of percentage inhibition against concentration of test compound.

[2] = test system: de novo hepatic cholesterol synthesis from 14C-acetate; test: Acute rat cholesterol synthesis assay; format: in vivo; conditions: inhibition of cholesterol synthesis
Description: (b) Acute rat cholesterol synthesis assay.
This is an acute in vivo test in the rat to measure de novo hepatic cholesterol synthesis from exogenously administered ^14 C-acetate.
Female rats (35-55 g) are housed in reverse lighting conditions (red light from 0200 h-1400 h) for a period of about 2 weeks prior to test. Animals are allowed free access to chow and drinking water throughout this period. At test, animals should weigh 125-150 g.
Test compounds may be administered by oral gavage, dissolved or suspended in 0.5% polysorbate, or by ip or iv dosing. Control animals receive vehicle alone. After 1 hour the rats are injected ip with 25 μCi [2-^14 C]-acetate (NEN DUPONT. specific activity, 45-60 mCi/mmol NEC-085H, or AHERSHAM specific activity, 50-60 mCi/mmol CFA 14) in a volume of 0.25 ml saline (100 μCi/ml). After a further hour, rats are terminally anaesthetised with halothane and a blood sample obtained from the abdominal vena cava.
1 ml of plasma is lyophilised and then saponified in 2 ml ethanolic KOH (1 part 33% KOH, 9 parts ethanol) at 75° C. for 2 hours. After addition of an equal quantity of water, non-saponifiable lipids are extracted with two 5 ml volumes of hexane. The hexane extracts are evaporated to dryness and the residues dissolved in ethanol to determine cholesterol specific radioactivity. ED50 values can be determined in the standard way.

In the case of `COCCOc1cc(C)c(C#CC2(O)CN3CCC2CC3)c(C)c1` (centres unmarked) [Example 16], the “inhibition of squalene synthase” value [1] was “about 80%” and the ED50 [2] was about 5.1 mg/kg.
